Data: patent publication US20080108665A1, “Use of N-substituted sulfoximines for control of invertebrate pests” (priority 2006, published 2008)

How the values were obtained:
Format in all cases: in vivo
[1] = system: Green Leafhopper (Nephotettix sp.); assay: Green leafhopper root uptake assay on rice; conditions: 6-day observation
Protocol: These assays were designed to evaluate the possibility of using compounds of the invention for applications such as nursing trays, transplanting water and/or irrigation. Root-uptake systemic assays were performed on both brown planthopper and green leafhopper. Four-week-old rice seedlings were submerged in 3-cm depth of water in the bottom portion (high 5 cm, diameter 3 cm) of a 2-part glass cylinder (high 18 cm, diameter 3 cm). A metal screen was used to hold the seedlings within the bottom portion. Scotch tape was used to bind the two portions of the cylinder after setting up the seedlings. A metal cap was used to cover the cylinder. There were 4 cylinders for each treatment. The test compound was dissolved in acetone to make a 10,000 ppm stock solution which was incorporated at final test concentrations of 5, 2, 1, 0.5, 0.25 ppm in the water in which rice seedlings were submerged. Five laboratory-reared 3rd instar nymphs of brown planthopper or green leafhopper were introduced into each cylinder 3 hr after insecticide application. The treated test units were kept in a growth chamber with conditions set as followings: Temperature 28±0.5° C.; Relative humidity 70±0.5%; Photoperiod 14 hr light: […].

[2] = system: Bird Cherry-Oat Aphid (Rhopalosiphum padi); assay: Bird cherry-oat aphid seed coating assay on wheat; conditions: 1.34 mg/seed, 10% SC formulation, 4 days after infestation
Protocol: Twenty spring wheat (Triticum aestivum var. Yuma) seeds were placed on a waxed paper. A pipette was used to apply a 10% SC formulation of the test compound to each seed. Two application of 6.7 μl each were applied to a seed, waiting until the seed was air-dried between applications. The total amount of active ingredient applied to each seed was 1.34 mg. All coated seeds are planted into 3 inch pots containing greenhouse metro mix, with 4 seeds used in each pot. An appropriate number of untreated seeds was also planted for control. The pots are placed on a California cart and moved into a greenhouse for initial and subsequent sub-watering. When the plants had germinated and grown to the 1-2 leaf unfurled stage, they were infested with bird cherry-oat aphid. The infested plants were held in an environmental chamber (23° C., 40% RH, 16 hr light: 8 hr dark) for 4 days before an assessment of aphid populations was conducted. Calculations for % Control are based on a corrected basis compared to the populations on the untreated controls.
Corrected % Control=100*(X−Y)/X • where X=No. of live aphids on untreated plants • Y=No. of live aphids on treated plants

[3] = system: Green Peach Aphid (Myzus persicae); assay: Green peach aphid root uptake assay on pepper; conditions: 3 days after infestation
Protocol: These assays were designed to evaluate the possibility of using the compounds identified in the foregoing examples for applications such as nursing trays, transplanting water and/or irrigation. Systemic activity against green peach aphid was evaluated in a root uptake assay. Bell peppers (Capsicum annum var. California Wonder) were used as test plants seeded and grown in rock wool plugs. Plants were grown to expanding 1st true leaf stage. The rock wool plugs containing individual plants were placed in 1-ounce cups and surrounded with white clean sand. Five plants were used for each treatment. A volume of 5 mL of the test solutions was applied to each cup (each plant). After insecticide application, the seedlings were infested with green peach aphids and held in a growth chamber (25° C., 50% RH, 16 hr light: 8 hr dark). Number of live aphids on each plant was counted at 3 days after infestation. Calculations for % Control were based on a corrected basis compared to the populations on the reference plants.
Corrected % Control=100*(X−Y)/X • where X=No. of live aphids on reference plants • Y=No. of live aphids on treated plants Assay 1: Compound (3) was tested at a dose range of 5-500 μg/plant. A stock solution of 1000 ppm (1 mg/mL) was made by dissolving technical test compound in acetone:ethanol (90:10). The highest test concentration (100 ppm, 500 μg/5 ml) was prepared by diluting 2.5 mL stock solution with 22.5 mL DI water. The lower test concentrations (25 mL) were similarly prepared by diluting aliquots of the stock solution with DI water. Reference plants received DI water only.
Assay 2: Compound (2) was tested at a dose range of 0.08-50 μg/plant. A stock solution of 1000 ppm was made by dissolving 2 mg of technical test compound in 2 mL acetone. The highest test concentration (10 ppm, 50 μg/5 ml) was prepared by diluting 0.32 mL stock solution with 1.6 mL acetone and 30.08 mL DI water, containing 6% acetone. Lower test concentrations were prepared by sequentially diluting 6.5 mL higher concentration (start from the 10 ppm test solution) with 26.0 ml acetone: DI water (6:94). The solvent/diluent system (6% acetone) was used as reference.

SMILES: CC(c1ccc(Cl)nc1)S(C)(=O)=NC#N (stereo not shown) [Compound 2, [1-(6-chloropyridin-3-yl)ethyl](methyl)oxido-λ^4-sulfanylidenecyanamide]
- % Control, root uptake systemic Green leafhopper ([1]; 0.25 ppm in water): 45%
- % Control, root uptake systemic Green leafhopper ([1]; 0.50 ppm in water): 65%
- % Control, root uptake systemic Green leafhopper ([1]; 1.00 ppm in water): 100%
- % Control, root uptake systemic Green leafhopper ([1]; 2.00 ppm in water): 100%
- % Control, root uptake systemic Green leafhopper ([1]; 5.00 ppm in water): 100%
- % Control, seed coating systemic [2]: 100%
- % Control, root uptake systemic ([3]; 0.08 μg/plant): 41%
- % Control, root uptake systemic ([3]; 0.4 μg/plant): 48%
- % Control, root uptake systemic ([3]; 2 μg/plant): 95%
- % Control, root uptake systemic ([3]; 10 μg/plant): 99%
